The target of the test is T1, mouse Nurr1 full-length (Mus musculus, UniProt Q06219).
T1 construct: pcDNA3.1 Myc/His mouse Nurr1 full-length construct; expressed in transfected cells; host or cells: SK-N-BE2C
T1 sequence (Q06219 whole entry): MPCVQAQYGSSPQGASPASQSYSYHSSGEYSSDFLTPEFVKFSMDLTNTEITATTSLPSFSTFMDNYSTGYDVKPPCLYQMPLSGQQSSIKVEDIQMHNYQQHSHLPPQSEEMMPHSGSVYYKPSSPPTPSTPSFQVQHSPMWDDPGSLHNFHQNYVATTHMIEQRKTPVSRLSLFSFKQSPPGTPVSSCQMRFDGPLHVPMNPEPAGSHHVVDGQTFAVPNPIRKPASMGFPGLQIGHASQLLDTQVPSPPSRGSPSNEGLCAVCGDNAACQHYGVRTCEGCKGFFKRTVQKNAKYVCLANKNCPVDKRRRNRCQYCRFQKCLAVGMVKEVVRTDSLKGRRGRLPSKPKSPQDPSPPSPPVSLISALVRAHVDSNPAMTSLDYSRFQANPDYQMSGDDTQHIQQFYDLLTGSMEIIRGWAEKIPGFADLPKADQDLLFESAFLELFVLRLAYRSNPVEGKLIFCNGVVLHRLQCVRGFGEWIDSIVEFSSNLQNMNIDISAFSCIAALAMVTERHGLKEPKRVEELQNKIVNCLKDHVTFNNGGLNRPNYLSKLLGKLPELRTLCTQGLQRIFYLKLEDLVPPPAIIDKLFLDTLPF
Nature of the test: Luciferase reporter gene assay for Nurr1 transcriptional activity in SK-N-BE2C cells. The format is cell-based. The following applies: relative activity over control (luminescence value; 1.0). As to the method: To investigate whether the PG analogs of the present invention activate Nurr1 function, the inventors of the present invention employed an reporter gene assay and examined the transcriptional activation as described in Kim, C.-H. et al., Proceedings of the National Academy of Sciences 112, 8756-8761, doi:10.1073/pnas.1509742112 (2015).
The gene assay was performed by Luciferase assay as described below:
[Protocol for Luciferase Assay to Determine Nurr1 Transcriptional Activity] • 1. SK-N-BE2C cells were maintained in HyClone™ DMEM High Glucose (Cat. No.: SH30022.01) with 10% (v/v) fetal bovine serum (FBS), 100 units/ml penicillin and 100 μg/ml streptomycin. • 2. Seed 1.5×10^5 SK-N-BE2C cells/well into a 24-well plate and incubate at 37° C. with 5% CO2 for 24 hours. • 3. After 24 hours, transfect cells with pcDNA3.1 Myc/His mouse Nurr1 full-length construct, firefly luciferase reporter vector (pGL-3 basic from Promega, Cat. No.:E1751; with appropriate response element cloned in) and Renilla luciferase control vector (pRL-null from Promega, Cat. No.:E2271) in the ratio of 8:1:1 (Nurr1: firefly: renilla) or 400 ng, 50 ng and 50 ng respectively, amounting to a total of 500 ng in the 50 μl transfection mix for 1 well. • 4. To make the transfection mix, first prepare the DNA with P3000 reagent by adding the appropriate amount of DNA with 1 μl P3000 reagent and top up with Opti-MEM® I Reduced-Serum Media (from ThermoFisher Scientific [Cat. No.: 31985070]) to 25 μl. Incubate for 5 minutes at room temperature. • 5. Make another mix consisting of 1 μl Lipofectamine 3000 reagent with 24 μl Opti-MEM® I Reduced-Serum Media per well. Add this Lipofectamine mix to the previous DNA-P3000 mix (after the previous 5 minute incubation) and incubate them for 15 minutes at room temperature. [P3000:Lipofectamine=1:1]. • 6. In the meantime, change the media in the sample wells with fresh DMEM media without antibiotics. • 7. After 15 minutes incubation, add the 50 μl transfection mix into each well and incubate the plate for 24 hours at 37° C. with 5% CO2. • 8. After 24 hours, change the media to normal DMEM media with antibiotics and add various doses of compounds into designated wells and incubate the plate for another 24 hours at 37° C. with 5% CO2. • 9. Following the 24-hour incubation period, luciferase assay can be conducted using Dual-Glo Luciferase® kit from Promega (Cat. No.: E2920). • 10. Lyse each tested wells for 15 minutes with 75 μl of passive lysis buffer provided in the Dual-Luciferase® kit from Promega (Cat. No.: E1910). [Alternatively, add 75 μl of PBS and 75 μl of Dual-Glo® Luciferase Reagent and incubate for 10 minutes at room temperature (cover the plate with foil to protect from light). Transfer the entire sample in each well to a Greiner CELLSTAR® 96-well white polystyrene plate then proceed to step 13]. • 11. After 15 minutes, transfer each lysed sample to a Greiner CELLSTAR® 96-well white polystyrene plate (Cat. No.:655083). • 12. To each well of lysed cells, add 75 μl of Dual-Glo® Luciferase Reagent and incubate for 10 minutes at room temperature (cover the plate with foil to protect from light). • 13. Set the measurement with a 10-second integrated measurement period. • 14. Add 75 μl of Dual-Glo® Stop & Glo® reagent into each well and incubate for 10 minutes before commencing with the same parameters as before to determine the RLU for the Renilla luciferase. • 15. The averaged reading for wells corresponding to non-transfected cells can be subtracted from each RLU reading and duplicate/triplicate readings can then be averaged. Normalization of the luminescence reading for each well can be carried out by dividing the firefly luciferase RLU with the corresponding Renilla luciferase RLU. Each drug-treated well can then be normalized against the averaged DMSO-treated well reading.
On the technique in general: A reporter such as luciferase makes a cellular process visible.
With `O=C(O)CCC/C=C\C[C@H]1[C@@H](O)CC(=O)[C@@H]1/C=C/[C@@H](O)COc1cccc(C(F)(F)F)c1` [Compound 23, 11-keto Fluprostenol], the “Fold activity (1 uM)” value was “B (1.1~2.0 (moderate))”. Consider `CCCCC[C@H](O)/C=C/[C@H]1[C@H](O)CC(=O)[C@@H]1C/C=C\CCCC(=O)OC` [Compound 28, Prostaglandin E2 methyl ester], for which the “Fold activity (1 uM)” value is reported as “A (above 2.0 (high activity))”. In the case of `CCCCC[C@@](C)(O)/C=C/[C@H]1[C@H](O)CC(=O)[C@@H]1C/C=C\CCCC(=O)O` [Compound 53, 15(R)-15-methyl Prostaglandin E2] it was “B (1.1~2.0 (moderate))”; in that of `CCCCC[C@H](O)/C=C/[C@H]1C(=O)C[C@H](O)[C@@H]1C/C=C\CCCC(=O)NC(CO)CO` [Compound 32, Prostaglandin D2 serinol amide], “C (below 1.0 (low activity))”; in that of `CCCCCC(=O)CC[C@H]1[C@H](O)CC(=O)[C@@H]1C/C=C\CCCC(=O)O` [Compound 29, 13,14-dihydro-15-keto Prostaglandin E2], “B (1.1~2.0 (moderate))”. With `CCCCC[C@H](O)/C=C/[C@H]1[C@H](O)CC(=O)[C@H]1CCCCCCC(=O)O` [Compound 50, 8-iso Prostaglandin E1], the “Fold activity (1 uM)” value is recorded as “A (above 2.0 (high activity))”.

As for `CCCCCC(O)/C=C/[C@H]1[C@H](O)CC(=O)[C@@H]1CCCCCCC(=O)Oc1ccc(NC(=O)c2ccc(F)cc2)cc1` (stereo partly drawn) [Compound 11, 4-(4-fluorobenzamido)phenyl 7-((1R,2R,3R)-3-hydroxy-2-((E)-3-hydroxyoct-1-enyl)-5-oxocyclopentyl)heptanoate], the “Fold activity (1 uM)” value is given as “A (above 2.0 (high activity))”.

Consider `CCCCC(C)(O)C/C=C/[C@H]1[C@H](O)CC(=O)[C@@H]1CCCCCCC(=O)Oc1ccc(NC(=O)c2ccccc2)cc1` (stereo partly drawn) [Compound 2, 4-Benzamidophenyl-7-((1R,2R,3R)-3-hydroxy-2-((E)-4-hydroxy-4-methyloct-1-en-1-yl)-5-oxocyclopentyl)heptanoate], for which the “Fold activity (1 uM)” value was “A (above 2.0 (high activity))”. With `CCCCC[C@H](O)/C=C/[C@H]1[C@H](O)CC(=O)[C@@H]1CCCCCCC(=O)O` [Compound 73, Prostaglandin E1], the “Fold activity (1 uM)” value was “A (above 2.0 (high activity))”. With `CCCCC[C@H](O)/C=C/[C@H]1[C@H](O)CC(=O)[C@@H]1C/C=C/CCCC(=O)O` (relative stereo) [Compound 60, 5-trans Prostaglandin E2], the “Fold activity (1 uM)” value is reported as “B (1.1~2.0 (moderate))”. For `CCCCC(C)(O)C/C=C/[C@H]1[C@@H](O)CC(=O)[C@@H]1CCCCCCC(=O)OC` (stereo partly drawn) [Compound 81, 11β-Misoprostol] the value was “C (below 1.0 (low activity))”.

As to `CCCCCC(=O)CCC1C(O)CC(=O)C1CCCCCCC(=O)O` (centres unmarked) [Compound 74, 13,14-dihydro-15-keto Prostaglandin E1], the “Fold activity (1 uM)” value was “B (1.1~2.0 (moderate))”. In the case of `CC(C)OC(=O)CCC/C=C\C[C@@H]1[C@@H](CC[C@@H](O)CCc2ccccc2)[C@H](O)C[C@@H]1O` [Compound 91, Latanoprost] it was “B (1.1~2.0 (moderate))”. For `CC/C=C/C[C@H](O)/C=C/[C@H]1[C@H](O)CC(=O)[C@@H]1C/C=C\CCCC(=O)O` (relative stereo) [Compound 78, 17-trans Prostaglandin E3], the “Fold activity (1 uM)” value is “A (above 2.0 (high activity))”. For `CCCCC[C@@H](O)/C=C/[C@H]1[C@H](O)CC(=O)[C@@H]1C/C=C\CCCC(=O)O` [Compound 37, 15(R)-Prostaglandin E2] the value was “B (1.1~2.0 (moderate))”; for `CCCCC[C@@H](O)CC[C@H]1[C@H](O)CC(=O)[C@@H]1CCCCCCC(=O)O` [Compound 66, 13,14-dihydro-15(R)-Prostaglandin E1], “B (1.1~2.0 (moderate))”; for `O=C(O)CCCCCCC1C(=O)NC(=O)N1CCC(O)C1CCCCC1` (centres unmarked) [Compound 90, BW245C], “A (above 2.0 (high activity))”.

The record behind these values is US20210139435A1, “PROSTAGLANDIN ANALOGS AND USES THEREOF” (Lifex Biolabs, Inc., priority 2019, published 2021).
